Reference: the NIST ThermoML archive (doi:10.1016/j.jct.2017.09.022)

Test: molar heat capacity at constant pressure
Settings: 101.33 kPa, Crystal, Small (less than 1 g) adiabatic calorimetry

C[C@@H](O)[C@H](N)C(=O)O [L-threonine]
Settings | molar heat capacity at constant pressure [J/K/mol]
145.26 K | 88.8
146.21 K | 89.13
147.15 K | 89.63
148.1 K | 90.13
149.05 K | 90.63
150 K | 90.96
150.93 K | 91.38
151.88 K | 91.87
152.83 K | 92.21
153.78 K | 92.79
154.71 K | 93.21
155.66 K | 93.7
156.61 K | 94.2
157.55 K | 94.54
158.5 K | 94.87
159.44 K | 95.37
160 K | 95.62
160.38 K | 95.7
161.33 K | 96.12
162.27 K | 96.7
163.21 K | 97.03
164.16 K | 97.53
165.1 K | 98.03
166.02 K | 98.36
166.96 K | 98.78
167.9 K | 99.11
168.84 K | 99.69
169.78 K | 100.02
170 K | 100.19
170.72 K | 100.44
171.66 K | 100.85
172.6 K | 101.27
173.54 K | 101.6
174.48 K | 102.1
175.42 K | 102.6
176.34 K | 103.02
177.28 K | 103.43
178.21 K | 103.76
179.15 K | 104.35
180 K | 104.6
180.08 K | 104.6
180.99 K | 104.93
181.93 K | 105.34
182.86 K | 105.84
183.79 K | 106.34
184.73 K | 106.67
185.66 K | 107.09
186.59 K | 107.51
187.52 K | 107.92
188.45 K | 108.25
189.38 K | 108.75
190 K | 109
190.32 K | 109.09
191.25 K | 109.5
192.18 K | 110
193.1 K | 110.25
194.03 K | 110.67
194.96 K | 111.08
195.86 K | 111.5
196.79 K | 111.83
197.72 K | 112.33
198.65 K | 112.66
199.57 K | 112.99
200 K | 113.33
200.62 K | 113.49
201.78 K | 114.07
202.93 K | 114.57
204.09 K | 115.07
205.25 K | 115.65
206.41 K | 116.15
207.57 K | 116.57
208.73 K | 117.07
209.9 K | 117.57
210 K | 117.57
211.06 K | 118.07
212.23 K | 118.65
213.35 K | 119.06
214.52 K | 119.56
215.69 K | 119.98
216.86 K | 120.48
218.03 K | 120.89
219.2 K | 121.47
220 K | 121.81
220.37 K | 121.97
221.54 K | 122.56
222.71 K | 122.97
223.89 K | 123.47
225.06 K | 123.97
226.24 K | 124.55
227.41 K | 125.05
228.59 K | 125.47
229.77 K | 125.96
230 K | 126.13
230.95 K | 126.38
232.1 K | 126.96
233.28 K | 127.54
234.46 K | 128.29
235.64 K | 128.62
236.82 K | 129.04
238 K | 129.62
239.18 K | 130.04
240 K | 130.37
240.37 K | 130.54
241.55 K | 131.04
242.74 K | 131.45
243.92 K | 132.03
245.11 K | 132.53
246.3 K | 132.95
247.49 K | 133.61
248.68 K | 134.03
249.87 K | 134.53
250 K | 134.69
251.05 K | 134.94
252.25 K | 135.36
253.44 K | 135.86
254.64 K | 136.69
255.83 K | 137.11
257.02 K | 137.94
258.22 K | 138.44
259.42 K | 138.77
260 K | 138.93
260.62 K | 139.27
261.82 K | 139.85
263.02 K | 140.35
264.22 K | 140.68
265.42 K | 141.43
266.63 K | 142.01
267.84 K | 142.43
269.05 K | 142.93
270 K | 143.26
270.25 K | 143.34
271.46 K | 144.09
272.67 K | 144.42
273.88 K | 145.17
275.09 K | 145.5
276.3 K | 145.92
277.52 K | 146.42
278.73 K | 146.83
279.95 K | 147.5
280 K | 147.58
281.17 K | 147.91
282.39 K | 148.5
283.61 K | 149
284.84 K | 149.49
286.06 K | 149.99
287.29 K | 150.57
288.48 K | 151.16
289.71 K | 151.74
290 K | 151.82
290.94 K | 152.24
292.17 K | 152.65
293.4 K | 153.57
294.63 K | 153.65
295.86 K | 154.4
297.1 K | 154.82
298.15 K | 155.31
298.33 K | 155.4
299.57 K | 155.98
300 K | 155.98
301.28 K | 156.31
303.43 K | 157.14
305.56 K | 157.97
307.69 K | 158.56
309.8 K | 159.55
310 K | 159.55
311.9 K | 160.3
313.99 K | 161.13
316.05 K | 161.88
318.12 K | 162.8
320 K | 163.46
320.16 K | 163.55
322.2 K | 164.21
324.22 K | 164.88
326.23 K | 165.71
328.22 K | 166.29
330 K | 166.87
330.18 K | 166.95
332.14 K | 167.54
333.96 K | 168.2
335.89 K | 168.95
337.81 K | 169.7
339.72 K | 170.36
340 K | 170.61
341.6 K | 171.28
343.43 K | 172.36
345.28 K | 172.77
347.12 K | 173.69
348.93 K | 174.44
350 K | 174.94
350.73 K | 175.19
352.45 K | 175.85
354.22 K | 176.68
355.96 K | 177.35
357.68 K | 177.93
359.39 K | 178.59
360 K | 178.76
361.08 K | 179.26
362.43 K | 179.59
364.01 K | 180.17
365.64 K | 180.84
367.26 K | 181.17
368.85 K | 181.84
370 K | 182.25
370.42 K | 182.5
371.97 K | 182.83
